Measured values from patent publication US9926317B2, “Inhibitors of the renal outer medullary potassium channel” (Merck Sharp & Dohme Corp., priority 2014, dated 2018).

Target: T1, ROMK (Kir1.1) channel (Homo sapiens, UniProt P48048)
T1 sequence (P48048 1-391): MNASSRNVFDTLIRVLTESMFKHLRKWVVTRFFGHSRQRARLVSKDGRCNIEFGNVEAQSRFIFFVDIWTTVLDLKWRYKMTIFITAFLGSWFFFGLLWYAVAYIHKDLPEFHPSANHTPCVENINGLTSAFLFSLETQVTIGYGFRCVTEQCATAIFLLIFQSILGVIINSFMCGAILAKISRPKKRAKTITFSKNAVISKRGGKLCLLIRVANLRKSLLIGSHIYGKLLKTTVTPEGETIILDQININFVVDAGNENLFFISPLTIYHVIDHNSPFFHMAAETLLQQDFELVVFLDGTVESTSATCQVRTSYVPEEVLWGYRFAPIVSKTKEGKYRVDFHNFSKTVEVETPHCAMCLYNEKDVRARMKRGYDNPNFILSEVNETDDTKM
Experiment: Thallium Flux Assay
Format: cell-based
Excerpt: The compounds of Formula I according to the invention are inhibitors of ROMK, and therefore could be used as diuretic and/or natriuretic agents. ROMK inhibitors may be used to help to increase urination and increase urine volume and also to prevent or reduce reabsorption of sodium in the kidneys leading to increased excretion of sodium and water. Therefore, the compounds could be used for treatment or prophylaxis or both of disorders that benefit from increased excretion of water and sodium from the body. Accordingly, the compounds of this invention could be used in a method for inhibiting ROMK comprising administering a compound of Formula I in a ROMK-inhibitory effective amount to a patient in need thereof. This also encompasses the use of the compounds for inhibiting ROMK in a patient comprising administering a compound of claim 1 in a therapeutically effective amount to a patient in need of diueresis, natriuresis or both. […] Moreover, this invention also relates to the use of the compounds of Formula I or salts thereof to validate in vitro assays, for example but not limited to the Thallium Flux Assay described herein.
The following Thallium Flux Assay was performed on each of the final product compounds in the Examples.
A Thallium Flux Assay was performed on the compounds of the Examples. This assay has been described previously; see, e.g., PCT Published Application WO 2013/062900.

Structure (SMILES) | IC50
CC1=C(N2CCC3(CCN(C[C@H](O)c4ccc(-n5ncnn5)cc4)CC3)C2=O)COC1=O [Example 1, (R)-8-(2-(4-(2H-tetrazol-2-yl)phenyl)-2-hydroxyethyl)-2-(4-methyl-5-oxo-2,5-dihydrofuran-3-yl)-2,8-diazaspiro[4.5]decan-1-one] | 7 nM
CC1=C(N2CCC3(CCN(CC(O)c4ccc(-n5cnnc5)cc4)CC3)C2=O)COC1=O (racemic) [Example 2, 8-(2-(4-(4H-1,2,4-triazol-4-yl)phenyl)-2-hydroxyethyl)-2-(4-methyl-5-oxo-2,5-dihydrofuran-3-yl)-2,8-diazaspiro[4.5]decan-1-one] | 176 nM
CC1=C(N2CCC3(CCN(CC(O)c4ccc(-n5cnnc5)nc4)CC3)C2=O)COC1=O (racemic) [Example 3, 8-(2-(6-(4H-1,2,4-triazol-4-yl)pyridin-3-yl)-2-hydroxyethyl)-2-(4-methyl-5-oxo-2,5-dihydrofuran-3-yl)-2,8-diazaspiro[4.5]decan-1-one] | 248 nM

More lines, now with the values ahead:

IC50 | Structure (SMILES)
7 nM | CC1=C(N2CCC3(CCN(C[C@@H](O)c4ccc(-n5ncnn5)cc4)CC3)C2=O)COC1=O [Example 4, (S)-8-(2-(4-(2H-tetrazol-2-yl)phenyl)-2-hydroxyethyl)-2-(4-methyl-5-oxo-2,5-dihydrofuran-3-yl)-2,8-diazaspiro[4.5]decan-1-one]
3 nM | C[C@H]1CC2(CCN(C[C@@H](O)c3ccc(-n4ncnn4)cc3)CC2)C(=O)N1C1=CC(=O)OC1 [Example 5, (S)-8-((S)-2-(4-(2H-tetrazol-2-yl)phenyl)-2-hydroxyethyl)-3-methyl-2-(5-oxo-2,5-dihydrofuran-3-yl)-2,8-diazaspiro[4.5]decan-1-one]
5 nM | C[C@H]1CC2(CCN(C[C@H](O)c3ccc(-n4ncnn4)cc3)CC2)C(=O)N1C1=CC(=O)OC1 [Example 6, (S)-8-((R)-2-(4-(2H-tetrazol-2-yl)phenyl)-2-hydroxyethyl)-3-methyl-2-(5-oxo-2,5-dihydrofuran-3-yl)-2,8-diazaspiro[4.5]decan-1-one]
